Drawing on patent publication US9212130B2, “Heterocyclic derivative and pharmaceutical composition comprising the same” (SHIONOGI & CO., LTD., priority 2010, dated 2015), this text covers IC50, solubility and remaining rate for 43 compounds.

One data set addresses human P2X3 receptor (Homo sapiens (Human), UniProt P56373). In words: Evaluation of human P2X3 receptor inhibitory activity (ATP-induced Fluo-3 fluorescence, FDSS 3000). The class given is cell-based. The settings on record: C6BU-1 cell transfected with human P2X3 receptor gene. The procedure:
The plate was placed in High-Throughput Screening System FDSS 3000 (Hamamatsu Photonics K.K.). […] Five minutes after, 50 nM ATP solution (50 μL) prepared by dilution with the dilution buffer was dispensed through the built-in automatic dispenser, and the measurement of fluorescence intensity was continued for 3 min. For each well, the specific maximum fluorescence intensity was calculated as the ratio of the maximum fluorescence intensity after addition of the ATP solution to the fluorescence intensity at the starting of the measurement. […] FDSS software (Hamamatsu Photonics K.K.) was used for calculation of the specific maximum fluorescence intensity. IC50 was calculated using Microsoft Excel (Microsoft. Corporation) and XLfit (idbs Ltd.)
The aforementioned in mM, μM and nM are each means mmol/L, μmol/L and nmol/L, respectively.
In tables, μM means μmol/L.

Another data set can be described thus: Solubility test. As to conditions: 25 °C, other biorelevant, kinetic from dmso stock. The class given is physicochemical. The protocol: The solubility of a compound was determined under a condition in which 1% DMSO was added. 10 mmol/L compound solution was prepared using DMSO, and then 6 μL of the compound solution was added to 594 μL of artificial intestinal juice in […] (to 250 mL of 0.2 mol/L potassium dihydrogen phosphate reagent solution was added 118 mL of 0.2 mol/L NaOH reagent solution and water to provide a final volume of 1000 mL). After standing at 25 degrees Celsius for 16 hours, the mixed solution was filtrated with suction. The filtrate was diluted twice with methanol/water (1/1) and then a concentration in the filtration was measured with HPLC or LC/MS/MS by the absolute calibration method.

Data set [1] in a line: Metabolism stability test (pooled human hepatic microsomes). The class given is in vitro ADME. As to conditions: human liver microsomes 0.5 mg protein/mL; 37° C., 30 minutes; 1 mmol/L NADPH; compound concentration 0.5 μmol/L. The procedure:
Using commercially available pooled human hepatic microsomes, a test compound was reacted for a constant time, a remaining rate was calculated by comparing a reacted sample and an unreacted sample, thereby, a degree of metabolism in liver was assessed.
A reaction was performed (oxidative reaction) at 37° C. for 0 minute or 30 minutes in the presence of 1 mmol/L NADPH in 0.2 mL of a buffer (50 mmol/L tris-HCl pH 7.4, 150 mmol/L potassium chloride, 10 mmol/L magnesium chloride) containing 0.5 mg protein/mL of human liver microsomes. After the reaction, 50 μL of the reaction solution was added to 100 μL of a methanol/acetonitrile 1/1 (v/v), mixed and centrifuged at 3000 rpm for 15 minutes. The test compound in the supernatant was quantified by LC/MS/MS, and a remaining amount of the test compound after the reaction was calculated, letting a compound amount at 0 minute reaction time to be 100%.
(Liver microsomes are vesicles of endoplasmic reticulum, rich in cytochrome P450 enzymes.)

[2] abbreviates: artificial intestinal juice (phosphate buffer) with 1% DMSO, artificial intestinal juice in pH 8.8, 25 degrees Celsius for 16 hours.

The term IC50 denotes the concentration that inhibits the measured activity by half. Read a high IC50 as lower potency. The term solubility denotes the dissolved amount per volume that the medium holds. Lower therefore signals little dissolved substance.

human P2X3 receptor, sequence (P56373 whole entry): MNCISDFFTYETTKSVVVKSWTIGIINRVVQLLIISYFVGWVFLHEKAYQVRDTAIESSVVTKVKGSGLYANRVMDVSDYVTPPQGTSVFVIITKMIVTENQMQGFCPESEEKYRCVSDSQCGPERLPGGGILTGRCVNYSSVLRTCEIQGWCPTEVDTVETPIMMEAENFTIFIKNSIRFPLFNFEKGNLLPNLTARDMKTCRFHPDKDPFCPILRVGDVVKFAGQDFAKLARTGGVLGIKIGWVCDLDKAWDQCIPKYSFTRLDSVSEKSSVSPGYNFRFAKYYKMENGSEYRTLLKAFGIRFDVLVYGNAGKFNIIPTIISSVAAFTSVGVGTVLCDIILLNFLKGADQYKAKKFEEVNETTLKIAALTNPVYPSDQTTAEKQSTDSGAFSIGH

At human P2X3 receptor, `CC(C)Oc1ccc(Nc2cc(=O)n(CC(=O)NCCO)c(=O)n2Cc2ccc(Cl)cc2)cc1F` [I-112, 1-(4-chlorobenzyl)-6-(3-fluoro-4-isopropoxyphenylamino)-3-(2-hydroxyethylcarbamoylmethyl)pyrimidine-2,4(1H,3H)-dion] registered an IC50 of 14 nM. This compound registered a solubility at 16 h in “Solubility test” (1% DMSO, artificial intestinal juice in pH 8.8, 25 degrees Celsius for 16 hours) of more than 50 µM. On to `CC(C)Oc1ccc(Nc2nc(=O)c(CCC(=O)O)cn2Cc2ccc(Cl)cc2)cc1Cl` [I-117], for which the solubility at 16 h in the data set “Solubility test” (setting [2]) was more than 50 µM. For the compound `CCOC(=O)c1cn(Cc2ccc(Cl)cc2)c(Nc2ccc(OC(C)C)c(F)c2)nc1=O` [I-131, 1-(4-chlorobenzyl)-2-(3-fluoro-4-isopropoxyphenylamino)-5-(ethoxycarbonyl)pyrimidine-4(1H)-one], in data set [1], the remaining rate is given as 92%. In turn, `CC(C)Oc1ccc(Nc2ncc(NC(=O)NC3CCOCC3)c(=O)n2Cc2ccc(Cl)cc2)cc1F` [I-289] showed an IC50 against human P2X3 receptor of 7 nM. Besides, the remaining rate in data set [1] is recorded as 89%. Turning to `Cc1nc2ccc(Nc3nc(=O)c(C(=O)NCCCO)cn3Cc3ccc(Cl)cc3)cc2s1` [I-299], the IC50 against human P2X3 receptor came out at 111 nM. Besides, the solubility at 16 h in the data set “Solubility test” (setting [2]) is more than 50 µM. For `COCCCNC(=O)c1cn(Cc2ccc(Cl)cc2)c(Nc2ccc3nc(C)sc3c2)nc1=O` [I-300], the IC50 against human P2X3 receptor worked out at 164 nM. For the compound `Cc1nc2ccc(Nc3nc(=O)c(C(=O)NCCC#N)cn3Cc3ccc(Cl)cc3)cc2s1` [I-301], at human P2X3 receptor, the IC50 is 123 nM.

At human P2X3 receptor, `CC(=O)N1CCC(NC(=O)c2cn(Cc3ccc(Cl)cc3)c(Nc3ccc4nc(C)sc4c3)nc2=O)CC1` [I-302] came in with an IC50 of 87 nM.

In turn, `COC(=O)c1cncc(Oc2ccc(Nc3ncc(NC(=O)C4CCOCC4)c(=O)n3Cc3ccc(Cl)cc3)cc2)c1` [I-304] showed an IC50 against human P2X3 receptor of 2 nM.

`Cc1nc2ccc(Nc3ncc(Br)c(=O)n3Cc3ccc(Cl)cc3)cc2s1` [I-306] came in with an IC50 on human P2X3 receptor of 207 nM.

In the case of `Cc1nc2ccc(Nc3nc(=O)c(C(=O)NC(C)C)cn3Cc3ccc(Cl)cc3)cc2s1` [I-307], at human P2X3 receptor, the IC50 came to 40 nM. As to `Cc1nc2ccc(Nc3nc(=O)c(C(=O)NC4COC4)cn3Cc3ccc(Cl)cc3)cc2s1` [I-308], on human P2X3 receptor, the IC50 came to 133 nM. Take `Cc1nc2ccc(Nc3nc(=O)c(C(=O)NC4CC4)cn3Cc3ccc(Cl)cc3)cc2s1` [I-309]: the IC50 on human P2X3 receptor was 61 nM. On human P2X3 receptor, `Cc1nc2ccc(Nc3nc(=O)c(C(=O)NN(C)C)cn3Cc3ccc(Cl)cc3)cc2s1` [I-310] had an IC50 of 132 nM.

On human P2X3 receptor, `O=C(Nc1cnc(Nc2ccc(Oc3cnc(Cl)c(F)c3)cc2)n(Cc2ccc(Cl)cc2)c1=O)C1CCOCC1` [I-311] had an IC50 of 4 nM. Same read-out and setting: the same measure for `CSc1ccc(Cn2c(Nc3ccc4nc(C)sc4c3)ncc(NC(=O)C3CCOCC3)c2=O)cc1` [I-312]: 11 nM. `CCn1c(=O)cc(Nc2ccc(Oc3cncc(C(=O)OC)c3)cc2)n(Cc2ccc(Cl)cc2)c1=O` [I-314]: at human P2X3 receptor, 35 nM corresponded to half-maximal inhibition (IC50).

On human P2X3 receptor, `CCn1c(=O)cc(Nc2ccc(Oc3ccnc(C(=O)OC)c3)cc2)n(Cc2ccc(Cl)cc2)c1=O` [I-316] yielded an IC50 of 9 nM. Consider `CCn1c(=O)cc(Nc2ccc(Oc3ccnc(C(=O)O)c3)cc2)n(Cc2ccc(Cl)cc2)c1=O` [I-317], for which, at human P2X3 receptor, the midpoint of inhibition, the IC50, lay at 3 nM. For `Cc1nc2ccc(Nc3ncc(NC(=O)OC(C)(C)C)c(=O)n3Cc3ccc(Cl)cc3)cc2s1` [I-318], at human P2X3 receptor, the IC50 worked out at 9 nM.

Turning to `Cc1nc2ccc(Nc3ncc(NC(=O)OCc4ccccc4)c(=O)n3Cc3ccc(Cl)cc3)cc2s1` [I-319], inhibition at human P2X3 receptor was half-maximal at 105 nM (IC50). On human P2X3 receptor, `CCC1(CC)C(=O)N/C(=N\c2ccc(OC(C)C)cc2)N(Cc2ccc(Cl)cc2)C1=O` [I-327] yielded an IC50 of 867 nM. Same read-out and setting: the same measure for `Cc1nc(Nc2ccc(OC(C)C)cc2)n(Cc2ccc(Cl)cc2)c(=O)c1Cc1ccccc1` [I-330]: 350 nM. Compound `CC(C)NC(=O)c1c(O)[nH]/c(=N\c2ccc(OC(C)C)cc2)n(Cc2ccc(Cl)cc2)c1=O` [I-332] had an IC50 against human P2X3 receptor of 504 nM. With `COC(=O)CCNC(=O)c1c(O)[nH]/c(=N\c2ccc(OC(C)C)cc2)n(Cc2ccc(Cl)cc2)c1=O` [I-333, 1-(4-chlorobenzyl)-3-(2-methoxycarbonylethyl)carbamoyl-4-hydroxy-6-(4-isopropoxyphenylimino)-2,3-dihydro-pyrimidine-4-one], on human P2X3 receptor, half-maximal inhibition (IC50) required 115 nM. In turn, `CCOC(=O)c1c(O)[nH]/c(=N\c2ccc(OC(C)C)cc2)n(Cc2ccc(Cl)cc2)c1=O` [I-334] returned an IC50 on human P2X3 receptor of 188 nM.

For the compound `CC(=O)Nc1c(O)[nH]/c(=N\c2ccc(OC(C)C)cc2)n(Cc2ccc(Cl)cc2)c1=O` [I-339, 1-(4-chlorobenzyl)-3-acetylamino-4-hydroxy-6-(4-isopropoxyphenylimino)-2,3-dihydro-pryimidine-4-one], the IC50 against human P2X3 receptor worked out at 518 nM. As to `CC(C)Oc1ccc(/N=c2\[nH]c(O)c(NC(=O)C(C)C)c(=O)n2Cc2ccc(Cl)cc2)cc1` [I-341], inhibition against human P2X3 receptor was half-maximal at 681 nM (IC50). The compound `Cc1cc(=O)n(Cc2ccc(Cl)cc2)c(Nc2ccc3nc(C)sc3c2)n1` [I-343] had an IC50 against human P2X3 receptor of 694 nM.

In turn, `CCOC(=O)c1c(C)nc(Nc2ccc3nc(C)sc3c2)n(Cc2ccc(Cl)cc2)c1=O` [I-345] registered an IC50 on human P2X3 receptor of 273 nM. On the same count and under the same terms, the value for `Cc1nc2ccc(Nc3nc(C)c(C(N)=O)c(=O)n3Cc3ccc(Cl)cc3)cc2s1` [I-347] was 182 nM; that for `Cc1nc2ccc(Nc3nc(C)c(NC(=O)OC(C)(C)C)c(=O)n3Cc3ccc(Cl)cc3)cc2s1` [I-348] was 105 nM. On the same count and under the same terms, the same measure for `Cc1nc2ccc(Nc3nc(C)c(Br)c(=O)n3Cc3ccc(Cl)cc3)cc2s1` [I-349]: 280 nM; for `C=Cc1c(C)nc(Nc2ccc3nc(C)sc3c2)n(Cc2ccc(Cl)cc2)c1=O` [I-350]: 385 nM. For the compound `CCc1c(C)nc(Nc2ccc3nc(C)sc3c2)n(Cc2ccc(Cl)cc2)c1=O` [I-351], at human P2X3 receptor, the IC50 came to 146 nM. On the same count and under the same terms, the same measure for `COC(=O)CCCn1c(=O)cc(Nc2ccc3nc(C)sc3c2)n(Cc2ccc(Cl)cc2)c1=O` [I-352]: 24 nM; for `Cc1nc2ccc(Nc3cc(=O)n(CCOC4CCCCO4)c(=O)n3Cc3ccc(Cl)cc3)cc2s1` (centres unmarked) [I-353]: 9 nM; for `Cc1nc2ccc(Nc3cc(=O)n(CCO)c(=O)n3Cc3ccc(Cl)cc3)cc2s1` [I-355]: 57 nM. In the case of `CC(=O)N1CCC(C(=O)Nc2cnc(Nc3ccc4nc(C)sc4c3)n(Cc3ccc(Cl)cc3)c2=O)CC1` [I-356], the IC50 at human P2X3 receptor came to 18 nM. Also, the solubility at 16 h in “Solubility test” (setting [2]) is more than 50 µM. Compound `COC(=O)c1cccc(Oc2ccc(Nc3ncc(NC(=O)C4CCOCC4)c(=O)n3Cc3ccc(Cl)cc3)cc2)c1` [I-357] showed an IC50 at human P2X3 receptor of 3 nM. At human P2X3 receptor, `CC(=O)OC(C)(C)C(=O)Nc1cnc(Nc2ccc3nc(C)sc3c2)n(Cc2ccc(Cl)cc2)c1=O` [I-358] registered an IC50 of 16 nM.

At human P2X3 receptor, `Cc1nc2ccc(Nc3ncc(NC(=O)C(C)(C)O)c(=O)n3Cc3ccc(Cl)cc3)cc2s1` [I-360] displayed an IC50 of 3 nM. At human P2X3 receptor, `Cc1nc2ccc(Nc3ncc(NC(=O)C(CO)CO)c(=O)n3Cc3ccc(Cl)cc3)cc2s1` [I-361] came in with an IC50 of 10 nM.
